Laboratory results as given in patent publication US20020025942A1, “NOVEL TAU/NEUROFILAMENT PROTEIN KINASES” (priority 1991, published 2002).
Several values for one entry are separate records, joined by “and”; a condition that tells them apart may be missing. Identical values can stand only once. Each block holds one molecule with its values, some of them ahead of it.

Assays:
Format in all cases: biochemical, bovine
[1] = test system: KSP-phosphorylating kinases; experiment: Immuno-dotblot assay (SMI-31/SMI-34 epitope reconstitution on dephosphorylated NF-triplet) with crude 35-45% ammonium sulfate fraction; conditions: crude enzyme
Method: The preferred method for the immunoassay for detecting KSP-phosphorylating kinases is as follows. […] After incubation at 37° C. for 18 hours, assays were diluted to 100 μl with 10 mM PBS, pH 7.2, and aliquots of 50 μl were spotted on nitrocellulose (0.22 μm, Schleicher and Schull). […] Blots were incubated with SMI mAbs for at least 2 hours. The blots were then washed five times. […] All incubations and washes were at room temperature. Incubations were sealed in plastic bags with 50 μl of solution/cm membrane. The foregoing procedure involved parameters that were optimized as follows. […] This activity was NF-specific, since the corresponding control immunoassay which lacked dephosphorylated native NF-triplet was almost negative for this fraction. […] The assays were performed with 0.5 mM Mg^2+ (unless indicated otherwise). […] Immuno-dotblot-assays were conducted to determine the optimal Mg^2+ and ATP concentrations using the SMI-31 and SMI-34 antibodies. […] Control assays were without NFs using 0.4 micrograms crude enzyme.

[2] = test system: PK36; experiment: 32P kinase assay of purified PK36 with dephosphorylated NF-M as second substrate
Method: (§1) An alternative method for assaying the phosphorylating activity of the kinases was by ^32P assays. Radioactive assays in the same buffer system as for immunoassays contained 5 μg of HTP-purified native NF-triplet as substrate (3μg of substrate proteins other than NFs) and 150-250 cpm/pmole gamma-^32P-ATP. Incubation'times were 15 minutes at 37° C. for activities up to about 1 pmole/min/assay, since the assay responses were linear within these time intervals. Assays were stopped by cooling on ice, addition of 20 μl 25 mM EDTA and immediate transfer of the mixture onto glass filters (Whatman GF/A) wetted with 10% TCA/2% sodium pyrophosphate (PPA). The glass filters were washed twice for 1 hour and once for at least 3 hours in 10% TCA/2% PPA and finally in ethanol and were air-dried. Radioactivity was assessed by scintillation counting (Beckman LS 230) with 5 ml “Liquiscint” (National Diagnostics) for 20 minutes. Assays were routinely carried out in triplicate except for some duplicate assays in a few explicitly mentioned cases; a control assay lacking NFs was subtracted from the mean value.
(§2) The ATP dependence and inhibition of the activities of PK40 and PK36 were determined at 2 mM Mg^2+ with soluble dephosphorylated NF-M as second substrate to avoid uncertainties arising from the aggregation state of NF-triplet in suspension. The optima were at 0.5-1 mM ATP for both kinases. Apparent Km values for ATP of both kinases were estimated from Woolf-Hanes plots (Dixon and Webb, 1979) for a range of ATP concentrations sufficiently below the onset of inhibition. […] The apparent Km of PK36 was approximately 50 μM.

[3] = molecular target: T1, PK40 (Bos taurus, UniProt P46196); experiment: 32P kinase assay of purified PK40 with dephosphorylated NF-M as second substrate
T1 construct: from tissue; host or cells: bovine brain
T1 sequence (P46196 2-360 limits assumed): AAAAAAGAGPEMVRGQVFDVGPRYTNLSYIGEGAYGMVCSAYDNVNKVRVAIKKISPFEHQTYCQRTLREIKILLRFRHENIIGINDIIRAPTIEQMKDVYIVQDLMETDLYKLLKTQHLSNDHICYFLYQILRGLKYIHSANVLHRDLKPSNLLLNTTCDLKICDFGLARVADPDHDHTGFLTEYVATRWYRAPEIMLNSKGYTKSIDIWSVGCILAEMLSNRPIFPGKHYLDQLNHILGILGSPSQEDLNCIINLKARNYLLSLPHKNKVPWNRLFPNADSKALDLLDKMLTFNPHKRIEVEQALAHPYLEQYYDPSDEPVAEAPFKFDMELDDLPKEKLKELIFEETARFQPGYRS
Method: as §1, §2

[4] = 2 mM Mg2+, 5 mM ATP, % of control (2 mM Mg2+, 1 mM ATP)
[5] = ATP in relatively small excess over Mg2+
[6] = 5 mM Mg2+ over 1 mM ATP or 5 mM over 5 mM ATP
[7] = 5 mM Mg2+, 1 mM ATP, % of control
[8] = 5 mM Mg2+, 5 mM ATP, % of control

Structure (SMILES): Nc1ncnc2c1ncn2[C@@H]1O[C@H](COP(=O)(O)OP(=O)(O)OP(=O)(O)O)[C@@H](O)[C@H]1O [ATP]
- effect on kinase activity ([1]; ATP 5 mM): inhibited the kinase activity
- ATP optimum of PK36 activity ([2]; 2 mM Mg2+): 0.5 to 1 mM
- relative activity [%] of PK36 [2, 4]: 14% and 14 ± 0.5%
- Km ([2]; 2 mM Mg2+, Woolf-Hanes plots, read-out: apparent Km for ATP of PK36): ~50 µM
- inhibition of PK36 by excess ATP [2, 5]: strongly inhibited
- ATP optimum of PK40 activity ([3]; 2 mM Mg2+): 0.5 to 1 mM
- relative activity [%] of PK40 [3, 4]: 7% and 7.2 ± 6.9%
- Km ([3]; 2 mM Mg2+, Woolf-Hanes plots, mean ±S.D. of three determinations, read-out: apparent Km for ATP of PK40): 93 ± 12 µM
- inhibition of PK40 by excess ATP [3, 5]: strongly inhibited

Structure (SMILES): [Cl-].[Na+] [NaCl, sodium chloride]
- concentration that diminished the assay response ([1]; attributed to ionic strength): greater than 20 mM
- relative activity [%] of PK36 ([2]; NaCl 150 mM, % of control): 40 ± 0.8%
- relative activity [%] of PK40 ([3]; NaCl 150 mM, % of control): 27 ± 1.8%

- inhibition of PK36 with excess Mg2+ [2, 6]: significantly reduced
- relative activity [%] of PK36 [2, 7]: 40 ± 0.2%
- relative activity [%] of PK36 [2, 8]: 38 ± 2.2%
- inhibition of PK40 with excess Mg2+ [3, 6]: little or no inhibition
- relative activity [%] of PK40 [3, 7]: 107 ± 3.5%
- relative activity [%] of PK40 [3, 8]: 78 ± 7.1%
Structure (SMILES): [Mg+2] [Mg^2, magnesium]

Structure (SMILES): [Mn+2] [Mn^2+]
- effectiveness relative to Mg2+ [1]: about twice as effective as Mg^2+

Structure (SMILES): Nc1nc2c(ncn2[C@@H]2O[C@H](COP(=O)(O)OP(=O)(O)OP(=O)(O)O)[C@@H](O)[C@H]2O)c(=O)[nH]1 [GTP]
- ability to substitute for ATP [1]: could not substitute for ATP
